Experimental data reported in the kinase profiling compilation of Christmann-Franck et al. (2016).
Values joined by “and” are separate entries in the source; they are usually repeats but may differ in a detail not shown here. Equal values may be shown once.

Key:
Assay in all cases: radiometric filter-binding kinase assay, Kinase HotSpot
Conditions in all cases: compound 0.5 µM; ATP 10 µM
[1] = target: MARK3 (human) (UniProt P27448)
[2] = target: NEK3 (human) (UniProt P51956)
[3] = target: PNCK (human) (UniProt Q6P2M8)
[4] = target: MAP3K3 (human) (UniProt Q99759)
[5] = target: RET (human) (UniProt P07949)
[6] = target: NTRK3 (human) (UniProt Q16288)
[7] = target: PRKD1 (human) (UniProt Q15139)
[8] = target: PRKCG (human) (UniProt P05129)
[9] = target: MAP2K1 (human) (UniProt Q02750)
[10] = target: CAMK2G (human) (UniProt Q13555)
[11] = target: TAOK2 (human) (UniProt Q9UL54)
[12] = target: IKBKB (human) (UniProt O14920)
[13] = target: ACVR1B (human) (UniProt P36896)
[14] = target: ADRBK2 (human) (UniProt P35626)
[15] = target: MAP3K8 (human) (UniProt P41279)
[16] = target: TEK (human) (UniProt Q02763)
[17] = target: ABL1 (human) (UniProt P00519)
[18] = target: TNK2 (human) (UniProt Q07912)
[19] = target: DYRK1B (human) (UniProt Q9Y463)
[20] = target: CDK7 CCNH MNAT1 (human) (UniProt P50613+P51948+P51946)
[21] = target: BMX (human) (UniProt P51813)
[22] = target: PLK2 (human) (UniProt Q9NYY3)
[23] = target: DAPK3 (human) (UniProt O43293)
[24] = target: GSG2 (human) (UniProt Q8TF76)
[25] = target: MAP3K9 (human) (UniProt P80192)
[26] = target: RIPK2 (human) (UniProt O43353)
[27] = target: SRPK2 (human) (UniProt P78362)
[28] = target: TXK (human) (UniProt P42681)
[29] = target: PBK (human) (UniProt Q96KB5)
[30] = target: CAMK1G (human) (UniProt Q96NX5)
[31] = target: RPS6KA4 KD2 (human) (UniProt O75676)
[32] = target: CSNK2A1 (human) (UniProt P68400)
[33] = target: ERBB4 (human) (UniProt Q15303)
[34] = target: ROS1 (human) (UniProt P08922)
[35] = target: PDGFRA (human) (UniProt P16234)
[36] = target: MAP3K10 (human) (UniProt Q02779)
[37] = target: CAMKK2 (human) (UniProt Q96RR4)
[38] = target: EPHA1 (human) (UniProt P21709)
[39] = target: DDR2 (human) (UniProt Q16832)
[40] = target: LYN (human) (UniProt P07948)
[41] = target: DYRK3 (human) (UniProt O43781)
[42] = target: CSK (human) (UniProt P41240)

Sequence of LYN (human) (P07948 whole entry, looked up): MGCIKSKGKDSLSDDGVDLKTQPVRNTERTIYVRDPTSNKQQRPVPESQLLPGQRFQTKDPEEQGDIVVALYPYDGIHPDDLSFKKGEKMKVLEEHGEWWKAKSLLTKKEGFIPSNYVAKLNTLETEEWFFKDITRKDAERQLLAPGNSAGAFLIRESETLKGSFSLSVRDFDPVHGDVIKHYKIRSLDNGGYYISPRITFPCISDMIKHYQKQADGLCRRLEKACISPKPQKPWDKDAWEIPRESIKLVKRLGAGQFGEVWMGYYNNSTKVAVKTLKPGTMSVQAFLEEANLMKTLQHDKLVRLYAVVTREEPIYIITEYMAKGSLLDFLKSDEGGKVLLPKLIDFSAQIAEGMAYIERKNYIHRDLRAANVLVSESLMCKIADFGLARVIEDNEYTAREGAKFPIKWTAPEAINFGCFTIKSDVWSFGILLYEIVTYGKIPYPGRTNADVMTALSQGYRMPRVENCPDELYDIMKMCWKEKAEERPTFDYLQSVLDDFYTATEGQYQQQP
Sequence of PDGFRA (human) (P16234 whole entry, looked up): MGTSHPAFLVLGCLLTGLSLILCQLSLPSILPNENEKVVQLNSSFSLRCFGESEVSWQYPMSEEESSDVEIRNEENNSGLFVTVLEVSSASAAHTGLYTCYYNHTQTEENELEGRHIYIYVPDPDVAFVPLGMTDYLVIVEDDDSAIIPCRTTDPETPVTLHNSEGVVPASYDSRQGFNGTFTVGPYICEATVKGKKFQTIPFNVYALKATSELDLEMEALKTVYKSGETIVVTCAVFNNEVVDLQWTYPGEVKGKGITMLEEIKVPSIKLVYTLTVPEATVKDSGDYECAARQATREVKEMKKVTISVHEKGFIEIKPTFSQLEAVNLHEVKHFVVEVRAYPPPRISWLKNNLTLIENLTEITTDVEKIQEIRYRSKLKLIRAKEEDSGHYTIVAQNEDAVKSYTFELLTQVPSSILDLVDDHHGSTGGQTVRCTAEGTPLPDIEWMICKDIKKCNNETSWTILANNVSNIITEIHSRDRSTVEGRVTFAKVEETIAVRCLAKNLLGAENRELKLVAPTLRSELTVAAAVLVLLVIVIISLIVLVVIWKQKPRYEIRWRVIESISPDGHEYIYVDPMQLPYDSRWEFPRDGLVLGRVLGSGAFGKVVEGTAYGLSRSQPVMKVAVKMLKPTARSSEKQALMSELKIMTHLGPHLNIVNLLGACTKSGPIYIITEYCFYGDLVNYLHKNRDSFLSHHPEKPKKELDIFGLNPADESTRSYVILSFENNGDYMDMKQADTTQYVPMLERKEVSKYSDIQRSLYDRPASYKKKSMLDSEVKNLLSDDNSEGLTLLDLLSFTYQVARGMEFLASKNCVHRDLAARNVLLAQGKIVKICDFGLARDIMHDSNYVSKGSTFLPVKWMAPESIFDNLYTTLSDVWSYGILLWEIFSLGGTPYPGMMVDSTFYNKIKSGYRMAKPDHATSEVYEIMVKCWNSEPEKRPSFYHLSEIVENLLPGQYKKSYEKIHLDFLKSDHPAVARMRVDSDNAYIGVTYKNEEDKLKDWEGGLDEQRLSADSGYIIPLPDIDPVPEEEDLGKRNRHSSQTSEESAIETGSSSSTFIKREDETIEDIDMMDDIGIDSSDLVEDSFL
Sequence of ROS1 (human) (P08922 whole entry, looked up): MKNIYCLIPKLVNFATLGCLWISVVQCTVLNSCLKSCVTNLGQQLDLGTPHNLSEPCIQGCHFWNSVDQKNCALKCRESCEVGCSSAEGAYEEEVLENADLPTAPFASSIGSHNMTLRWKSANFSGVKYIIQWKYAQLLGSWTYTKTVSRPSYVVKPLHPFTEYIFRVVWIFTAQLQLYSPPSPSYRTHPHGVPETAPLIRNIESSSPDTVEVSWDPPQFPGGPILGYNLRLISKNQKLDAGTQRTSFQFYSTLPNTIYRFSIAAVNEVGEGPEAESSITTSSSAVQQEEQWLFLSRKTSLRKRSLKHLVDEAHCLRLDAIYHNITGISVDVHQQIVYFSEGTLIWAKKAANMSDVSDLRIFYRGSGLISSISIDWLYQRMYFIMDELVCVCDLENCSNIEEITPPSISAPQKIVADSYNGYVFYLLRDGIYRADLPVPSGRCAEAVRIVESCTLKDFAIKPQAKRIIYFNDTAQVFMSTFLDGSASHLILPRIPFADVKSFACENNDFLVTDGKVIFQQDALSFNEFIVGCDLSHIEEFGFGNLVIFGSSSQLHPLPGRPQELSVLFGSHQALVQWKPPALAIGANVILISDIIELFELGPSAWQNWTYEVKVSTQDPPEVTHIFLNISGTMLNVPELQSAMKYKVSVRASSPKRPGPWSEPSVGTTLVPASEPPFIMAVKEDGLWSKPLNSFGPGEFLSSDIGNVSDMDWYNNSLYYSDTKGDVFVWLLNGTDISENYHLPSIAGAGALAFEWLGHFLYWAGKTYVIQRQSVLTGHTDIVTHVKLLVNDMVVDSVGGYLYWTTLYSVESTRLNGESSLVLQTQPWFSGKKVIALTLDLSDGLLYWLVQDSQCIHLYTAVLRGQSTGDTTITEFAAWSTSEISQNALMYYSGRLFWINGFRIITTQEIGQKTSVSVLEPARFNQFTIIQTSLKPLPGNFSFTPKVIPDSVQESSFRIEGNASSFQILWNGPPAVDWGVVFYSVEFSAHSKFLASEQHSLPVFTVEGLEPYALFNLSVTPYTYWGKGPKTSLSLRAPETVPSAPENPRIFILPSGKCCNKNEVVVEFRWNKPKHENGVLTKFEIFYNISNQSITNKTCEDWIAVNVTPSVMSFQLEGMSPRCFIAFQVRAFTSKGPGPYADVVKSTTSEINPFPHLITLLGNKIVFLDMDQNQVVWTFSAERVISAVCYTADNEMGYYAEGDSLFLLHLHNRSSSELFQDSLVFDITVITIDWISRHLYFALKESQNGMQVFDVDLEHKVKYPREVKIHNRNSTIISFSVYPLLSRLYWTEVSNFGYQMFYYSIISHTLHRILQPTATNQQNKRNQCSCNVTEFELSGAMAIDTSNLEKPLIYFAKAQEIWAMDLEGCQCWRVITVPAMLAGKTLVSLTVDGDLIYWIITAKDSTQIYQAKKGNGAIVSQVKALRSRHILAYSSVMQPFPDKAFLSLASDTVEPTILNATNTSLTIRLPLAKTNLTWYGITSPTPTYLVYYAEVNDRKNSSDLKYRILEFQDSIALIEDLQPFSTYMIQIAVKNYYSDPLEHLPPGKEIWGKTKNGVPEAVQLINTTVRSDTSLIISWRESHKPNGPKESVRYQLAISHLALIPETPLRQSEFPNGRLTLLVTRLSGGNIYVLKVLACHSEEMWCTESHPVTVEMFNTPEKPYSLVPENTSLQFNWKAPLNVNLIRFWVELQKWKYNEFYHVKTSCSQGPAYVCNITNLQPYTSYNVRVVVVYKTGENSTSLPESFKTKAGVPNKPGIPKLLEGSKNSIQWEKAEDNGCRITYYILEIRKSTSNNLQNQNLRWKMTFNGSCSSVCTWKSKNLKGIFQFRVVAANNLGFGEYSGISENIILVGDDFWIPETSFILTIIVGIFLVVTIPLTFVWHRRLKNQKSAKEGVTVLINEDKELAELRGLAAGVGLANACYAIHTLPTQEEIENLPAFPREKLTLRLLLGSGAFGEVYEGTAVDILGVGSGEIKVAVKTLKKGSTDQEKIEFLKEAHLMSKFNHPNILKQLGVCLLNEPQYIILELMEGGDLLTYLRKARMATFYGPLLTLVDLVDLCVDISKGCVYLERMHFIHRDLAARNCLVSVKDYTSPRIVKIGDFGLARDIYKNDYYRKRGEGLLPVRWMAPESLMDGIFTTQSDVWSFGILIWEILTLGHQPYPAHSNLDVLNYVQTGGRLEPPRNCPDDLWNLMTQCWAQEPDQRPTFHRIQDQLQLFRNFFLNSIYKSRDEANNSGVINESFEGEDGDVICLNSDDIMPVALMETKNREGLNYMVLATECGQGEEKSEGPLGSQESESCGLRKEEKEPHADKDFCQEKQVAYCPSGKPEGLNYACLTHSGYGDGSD
Sequence of NEK3 (human) (P51956 whole entry, looked up): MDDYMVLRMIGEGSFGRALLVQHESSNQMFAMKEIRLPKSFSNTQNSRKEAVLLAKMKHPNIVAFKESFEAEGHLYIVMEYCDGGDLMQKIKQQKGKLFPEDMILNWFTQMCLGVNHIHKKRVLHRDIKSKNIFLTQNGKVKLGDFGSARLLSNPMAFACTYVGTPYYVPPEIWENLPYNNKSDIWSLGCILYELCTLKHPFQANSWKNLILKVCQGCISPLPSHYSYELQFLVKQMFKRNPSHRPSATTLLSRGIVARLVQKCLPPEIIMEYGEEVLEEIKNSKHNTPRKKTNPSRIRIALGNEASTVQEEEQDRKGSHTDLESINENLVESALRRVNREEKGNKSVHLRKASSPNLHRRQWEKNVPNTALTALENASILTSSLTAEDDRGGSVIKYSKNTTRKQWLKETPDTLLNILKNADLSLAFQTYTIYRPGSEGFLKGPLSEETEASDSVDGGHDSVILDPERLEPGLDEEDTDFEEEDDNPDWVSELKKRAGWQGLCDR
Sequence of MAP3K8 (human) (P41279 whole entry, looked up): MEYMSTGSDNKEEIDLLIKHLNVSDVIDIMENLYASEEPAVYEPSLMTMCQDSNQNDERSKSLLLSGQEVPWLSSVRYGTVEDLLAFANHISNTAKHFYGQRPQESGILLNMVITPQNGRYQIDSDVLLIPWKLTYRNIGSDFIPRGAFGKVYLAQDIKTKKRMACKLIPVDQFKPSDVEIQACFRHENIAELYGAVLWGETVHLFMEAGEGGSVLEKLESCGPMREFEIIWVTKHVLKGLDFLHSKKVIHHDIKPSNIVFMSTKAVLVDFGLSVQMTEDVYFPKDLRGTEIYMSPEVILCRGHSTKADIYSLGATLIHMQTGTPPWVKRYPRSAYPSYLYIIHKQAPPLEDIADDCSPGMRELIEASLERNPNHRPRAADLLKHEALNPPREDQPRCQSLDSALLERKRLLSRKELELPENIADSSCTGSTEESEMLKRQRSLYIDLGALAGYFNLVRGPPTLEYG

`CN(C)CCCn1cc(C2=C(c3c[nH]c4ccccc34)C(=O)NC2=O)c2ccccc21` gave a residual activity [1] of 72%, a residual activity [2] of 110% and a residual activity [3] of 106%. For the same compound, the residual activity [4] was 97%, the residual activity [5] was 93.4% and the residual activity [6] was 20.2%. It also gave a residual activity [7] of 71.6%, a residual activity [8] of 17.6% and a residual activity [9] of 83.6%. The residual activity [10] was 73.3%, the residual activity [11] was 75.7% and the residual activity [12] was 119%. For the same compound, the residual activity [13] was 106%, the residual activity [14] was 99% and the residual activity [15] was 93.9%. The residual activity [16] was 99.7%, the residual activity [17] was 103% and the residual activity [18] was 94.7%. For the same compound, the residual activity [19] was 76%, the residual activity [20] was 92.1% and the residual activity [21] was 101%. It also gave a residual activity [22] of 97.3%, a residual activity [23] of 84.5% and a residual activity [24] of 93.6%. It also gave a residual activity [25] of 46%, a residual activity [26] of 87.7% and a residual activity [27] of 94.4%. The residual activity [28] was 107%, the residual activity [29] was 81.3% and the residual activity [30] was 97.4%. The residual activity [31] was 34.9%, the residual activity [32] was 99.5% and the residual activity [33] was 87.7%. For the same compound, the residual activity [34] was 62.8%, the residual activity [35] was 69.2% and the residual activity [36] was 81.8%. It also gave a residual activity [37] of 59.8%, a residual activity [38] of 89.9% and a residual activity [39] of 111%. For the same compound, the residual activity [40] was 104% and 84.1%, the residual activity [41] was 97.9% and the residual activity [42] was 97%.

Work on `C[C@@H]1CCN(C(=O)CC#N)C[C@@H]1N(C)c1ncnc2[nH]ccc12` yielded a residual activity [1] of 78.6%, a residual activity [2] of 94.5% and a residual activity [3] of 104%. The residual activity [4] was 115%, the residual activity [5] was 92.4% and the residual activity [6] was 90%. It also gave a residual activity [7] of 97.3%, a residual activity [8] of 90.6% and a residual activity [9] of 112%. For the same compound, the residual activity [10] was 127%, the residual activity [11] was 100% and the residual activity [12] was 88.2%. For the same compound, the residual activity [13] was 99.8%, the residual activity [14] was 99.2% and the residual activity [15] was 93.5%. The residual activity [16] was 96.6%, the residual activity [17] was 101% and the residual activity [18] was 87.1%. It also gave a residual activity [19] of 97%, a residual activity [20] of 119% and a residual activity [21] of 111%. For the same compound, the residual activity [22] was 102%, the residual activity [23] was 106% and the residual activity [24] was 77.9%. For the same compound, the residual activity [25] was 113%, the residual activity [26] was 113% and the residual activity [27] was 90.7%. The residual activity [28] was 98.4%, the residual activity [29] was 102% and the residual activity [30] was 97.8%. The residual activity [31] was 105%, the residual activity [32] was 104% and the residual activity [33] was 100%. It also gave a residual activity [34] of 94.1%, a residual activity [35] of 104% and a residual activity [36] of 105%. It also gave a residual activity [37] of 97.7%, a residual activity [38] of 98% and a residual activity [39] of 104%. For the same compound, the residual activity [40] was 96.3% and 98.6%, the residual activity [41] was 106% and the residual activity [42] was 101%.
